Patent US4110327A, “2,3 Diketo-piperazinocarbonylamino alkanoic acids and derivatives” (Toyama Chemical Co., Ltd., priority 1974, dated 1978)
In brackets after ≈: the same amount, converted by molar mass.

Columns and labels:
Assay type in all cases: cell-based
[1] = test system: Shigella sonnei; experiment: MIC against clinical isolates; details: clinical isolate JS 11232; unit assumed
Experimental: (§1) The minimum inhibitory concentrations (MIC) was determined by the plate method disclosed in "Chemotherapy" (Japan), Vol. 16, (1968), pages 98 - 99. The culture medium used was a Heart infusion agar (pH 7.4). The number of the cells per plate used in the inoculum as 10^4 (10^6 cells/ml).
(§2) MIC was determined in the same manner as in the preceding paragraph (1).

[2] = test system: Shigella flexneri; experiment: MIC against clinical isolates; details: unit assumed
Experimental: as §1, §2

[3] = test system: Salmonella typhi-murium; experiment: MIC against clinical isolates; details: unit assumed
[4] = test system: Salmonella typhi; experiment: MIC against clinical isolates; details: unit assumed
[5] = test system: Staphylococcus aureus 209p; experiment: MIC against standard strain, plate method; details: unit assumed
How it was run: (§3)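 Cells at 10^6 cells/ml were spotted to give 10^4 cells per plate on heart infusion agar adjusted to pH 7.4. The minimum inhibitory concentration was then read.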

[6] = test system: Pseudomonas aeruginosa I.F.O.; experiment: MIC against standard strain, plate method; details: unit assumed
How it was run: as §3

[7] = test system: Escherichia coli NIHJ; experiment: MIC against standard strain, plate method; details: unit assumed
How it was run: as §3

[8] = test system: Proteus vulgaris 3027; experiment: MIC against standard strain, plate method; details: Proteus vulgaris 3027, standard strain; unit assumed
How it was run: as §3

[9] = test system: Klebsiella pneumoniae; experiment: MIC against standard strain, plate method; details: unit assumed
How it was run: as §3

[10] = test system: Klebsiella pneumoniae; experiment: MIC against clinical isolates; details: unit assumed
[11] = test system: Escherichia coli; experiment: MIC against clinical isolates; details: unit assumed
[12] = test system: Proteus mirabilis; experiment: MIC against clinical isolates; details: clinical isolate, unit assumed
[13] = test system: Staphylococcus aureus; experiment: MIC against clinical isolates; details: unit assumed
[14] = test system: Proteus rettgeri; experiment: MIC against clinical isolates; details: clinical isolate, unit assumed
[15] = test system: Proteus vulgaris; experiment: MIC against clinical isolates; details: clinical isolate, unit assumed
[16] = test system: Proteus morganii; experiment: MIC against clinical isolates; details: clinical isolate, unit assumed
[17] = test system: Pseudomonas aeruginosa; experiment: MIC against clinical isolates; details: unit assumed

Work on `CC1(C)S[C@@H]2[C@H](NC(=O)C(C(=O)O)c3ccccc3)C(=O)N2[C@H]1C(=O)O` (some centres unmarked) [Sodium Carbenicillum, reference compound] yielded an MIC [1] greater than 200 µg/mL, an MIC ([2]; clinical isolate JS 11215) greater than 200 µg/mL and an MIC ([3]; clinical isolate SL 858) of 12.5 µg/mL. For the same molecule, the MIC ([3]; clinical isolate SL 2136) was greater than 200 µg/mL, the MIC ([4]; clinical isolate SL 819) was 6.25 µg/mL and the MIC ([4]; clinical isolate SL 2169) was 3.13 µg/mL.

With `CC(=O)OCC1=C(C(=O)O)N2C(=O)[C@@H](NC(=O)[C@H](N)c3ccccc3)[C@H]2SC1` [Sodium Cephaloglycin, SodiumCephaloglycin, reference compound] the MIC [5] was less than 1.57 µg/mL, the MIC [6] was greater than 200 µg/mL and the MIC [7] was less than 1.57 µg/mL. The MIC [8] was less than 1.57 µg/mL, the MIC [9] was 100 µg/mL and the MIC ([10]; clinical isolate GN 917) was 1.56 µg/mL. For the same molecule, the MIC ([10]; clinical isolate GN 4081) was 3.13 µg/mL, the MIC ([10]; clinical isolate GN 4117) was 3.13 µg/mL and the MIC ([11]; clinical isolate GN 3435) was 1.56 µg/mL. For the same molecule, the MIC ([11]; clinical isolate GN 3452) was 3.13 µg/mL, the MIC ([11]; clinical isolate GN 3465) was 12.5 µg/mL and the MIC ([11]; clinical isolate GN 3481) was 3.13 µg/mL. It also gave an MIC ([11]; clinical isolate GN 3611) of 25 µg/mL, an MIC ([11]; clinical isolate K-1) of 1.56 µg/mL and an MIC ([11]; clinical isolate K-2) of 1.56 µg/mL. For the same molecule, the MIC ([11]; clinical isolate K-3) was 25 µg/mL, the MIC ([11]; clinical isolate K-4) was 12.5 µg/mL and the MIC [12] was 3.13 µg/mL. It also gave an MIC ([13]; clinical isolate F-1) of 3.13 µg/mL, an MIC ([13]; clinical isolate F-2) of 1.56 µg/mL and an MIC ([13]; clinical isolate F-3) of 1.56 µg/mL. It also gave an MIC ([13]; clinical isolate F-4) of 3.13 µg/mL, an MIC ([13]; clinical isolate F-5) of 25 µg/mL and an MIC ([13]; clinical isolate MS 8588) of 3.13 µg/mL. It also gave an MIC ([13]; clinical isolate MS 8596) of 1.56 µg/mL, an MIC ([13]; clinical isolate MS 8619) of 1.56 µg/mL and an MIC ([13]; clinical isolate MS 8684) of 1.56 µg/mL. The MIC ([13]; clinical isolate MS 8713) was 3.13 µg/mL, the MIC [14] was 50 µg/mL and the MIC [15] was 50 µg/mL. It also gave an MIC [16] of 1.56 µg/mL, an MIC ([17]; clinical isolate GN 82) greater than 200 µg/mL and an MIC ([17]; clinical isolate GN 163) greater than 200 µg/mL. For the same molecule, the MIC ([17]; clinical isolate GN 221) was greater than 200 µg/mL, the MIC ([17]; clinical isolate GN 244) was greater than 200 µg/mL and the MIC ([17]; clinical isolate GN 376) was greater than 200 µg/mL. The MIC ([17]; clinical isolate GN 383) was greater than 200 µg/mL, the MIC ([17]; clinical isolate GN 1035) was greater than 200 µg/mL and the MIC ([17]; clinical isolate GN 1091) was greater than 200 µg/mL. The MIC ([17]; clinical isolate GN 2565) was greater than 200 µg/mL, the MIC ([17]; clinical isolate GN 2987) was greater than 200 µg/mL and the MIC ([17]; clinical isolate S-1) was greater than 200 µg/mL. It also gave an MIC ([17]; clinical isolate S-2) greater than 200 µg/mL, an MIC ([17]; clinical isolate S-3) greater than 200 µg/mL and an MIC ([17]; clinical isolate S-4) greater than 200 µg/mL.

`CCCCCCN1CCN(C(=O)N[C@@H](C(=O)N[C@@H]2C(=O)N3[C@@H]2SC(C)(C)[C@@H]3C(=O)O)c2ccccc2)C(=O)C1` [compound 13] was tested, and the MIC [1] was 12.5 µg/mL (≈ 22.3 µM), the MIC ([2]; clinical isolate JS 11215) was 12.5 µg/mL (≈ 22.3 µM) and the MIC ([2]; clinical isolate JS 11839) was 1.57 µg/mL (≈ 2.81 µM). For the same molecule, the MIC [5] was less than 1.57 µg/mL, the MIC [6] was 25 µg/mL (≈ 44.7 µM) and the MIC [7] was less than 1.57 µg/mL. The MIC [8] was less than 1.57 µg/mL, the MIC [9] was less than 1.57 µg/mL and the MIC ([10]; clinical isolate GN 917) was 12.5 µg/mL (≈ 22.3 µM). For the same molecule, the MIC ([10]; clinical isolate GN 4081) was 25 µg/mL (≈ 44.7 µM), the MIC ([10]; clinical isolate GN 4117) was 25 µg/mL (≈ 44.7 µM) and the MIC ([11]; clinical isolate GN 3465) was 25 µg/mL (≈ 44.7 µM). For the same molecule, the MIC ([11]; clinical isolate K-3) was 100 µg/mL (≈ 179 µM), the MIC ([3]; clinical isolate SL 858) was 0.79 µg/mL (≈ 1.41 µM) and the MIC ([3]; clinical isolate SL 2136) was 200 µg/mL (≈ 357 µM). For the same molecule, the MIC ([4]; clinical isolate SL 819) was 6.25 µg/mL (≈ 11.2 µM), the MIC ([4]; clinical isolate SL 2169) was 3.13 µg/mL (≈ 5.59 µM) and the MIC ([13]; clinical isolate F-1) was 12.5 µg/mL (≈ 22.3 µM). The MIC ([13]; clinical isolate F-2) was 1.57 µg/mL (≈ 2.81 µM), the MIC ([13]; clinical isolate F-5) was 200 µg/mL (≈ 357 µM) and the MIC ([13]; clinical isolate MS 8619) was 0.79 µg/mL (≈ 1.41 µM). It also gave an MIC ([17]; clinical isolate GN 82) of 50 µg/mL (≈ 89.3 µM), an MIC ([17]; clinical isolate GN 163) of 25 µg/mL (≈ 44.7 µM) and an MIC ([17]; clinical isolate GN 221) of 50 µg/mL (≈ 89.3 µM). For the same molecule, the MIC ([17]; clinical isolate GN 376) was 50 µg/mL (≈ 89.3 µM), the MIC ([17]; clinical isolate GN 383) was 50 µg/mL (≈ 89.3 µM) and the MIC ([17]; clinical isolate GN 1035) was 50 µg/mL (≈ 89.3 µM). For the same molecule, the MIC ([17]; clinical isolate GN 1091) was 25 µg/mL (≈ 44.7 µM), the MIC ([17]; clinical isolate GN 2565) was 50 µg/mL (≈ 89.3 µM) and the MIC ([17]; clinical isolate GN 2987) was 12.5 µg/mL (≈ 22.3 µM). For the same molecule, the MIC ([17]; clinical isolate GN (number not given; Table 5-3)) was 50 µg/mL (≈ 89.3 µM), the MIC ([17]; clinical isolate S-1) was 50 µg/mL (≈ 89.3 µM) and the MIC ([17]; clinical isolate S-2) was 50 µg/mL (≈ 89.3 µM). It also gave an MIC ([17]; clinical isolate S-3) of 100 µg/mL (≈ 179 µM) and an MIC ([17]; clinical isolate S-4) of 50 µg/mL (≈ 89.3 µM).
